Experimental data as given in PubChem BioAssay AID1963849 (Molecular Pharmacology Branch, DTP, NCI, 2024).
Several values for one entry are separate records, joined by “and”; a condition that tells them apart may be missing. Equal values may be shown once.

Test system: 299254-011-R-J1-PDC complex spheroid viability
Test: Anticancer human tumor 299254-011-R-J1-PDC patient-derived melanoma cell line growth inhibition [POLQ]
Conditions: for viability, T/C: stronger effect = lower value; for IC50: curve of compound
Procedure: Multicellular complex tumor spheroid response to Polymerase (POL) inhibitors (novobiocin, ART-558, RP6685) in combination with a variety of drugs and investigational agents in selected tumor cell lines
The POL inhibitors (novobiocin, ART-558, and RP6685) were evaluated both individually and in combination with standard of care and investigational anticancer small molecules within a complex spheroid model of solid tumors. . Complex spheroids include a stromal component modeled by human endothelial cells (HUVEC) and fibroblasts modeled by human mesenchymal stem cells (MSCs). The concentration ranges selected for each drug and investigational agent were based upon clinically achievable concentrations if the clinical Cmax of the agent was known.
Compounds. The drugs and investigational agents: novobiocin (NSC847541), ART-558 (NSC835418), RP-6685 (NSC848927), peposertib (NSC802822), ceralasertib (NSC780249), elimusertib (NSC800525), camonsertib (NSC841442), AZD-1390 (NSC803789), olaparib (NSC753686), talazoparib (NSC767125), rucaparib (NSC756644), sotorasib (NSC818433), MRTX-1133 (NSC836407), SN-38 (NSC673596), topotecan (NSC609699), epotoside (NSC141540), doxorubicin (NSC123127), gemcitabine (NSC613327), 5-fluorouracil (NSC19893), paclitaxel (NSC125973), vemurafenib (NSC761431), MSA-2 (NSC828583), SN-011 (NSC837082), adavosertib (NSC754352), prexasertib (NSC758257), carboplatin (NSC241240) and oxaliplatin (NSC266046), were obtained from the National Cancer Institute (NCI) Developmental Therapeutics Program Chemical Repository (21). The FDA-approved anticancer drug set is available from the Developmental Therapeutics Program at https://dtp.cancer.gov/organization/dscb/obtaining/. […] The stock solutions were prepared in dimethyl sulfoxide (DMSO, Sigma-Aldrich, St. Louis, MO, cat. D2650), except for the platinum compounds which were prepared in saline (Quality Biological, Gaithersburg, MD, cat. 114-055-101), at 800-fold the tested concentration and stored at -70 degrees C prior to their use. All drugs and investigational agents were tested over a range starting from a high concentration at or near the clinical Cmax and decreasing in half-log increments. If the clinical Cmax for an agent had not been determined, the highest concentration tested was 10 microM, except for SN-38, which was tested at a high concentration of 1 microM.
Cell Culture. All cells were maintained in an incubator at 37 degrees C and 5% CO2 with 95% humidity. The PDC lines were cultured according to standard operating procedures established by the NCI PDMR (https://pdmr.cancer.gov). Table 3 of the manuscript, lists the cell lines along with the number of the three cell types plated to form the mct-spheroids and media for tumor cell growth. After thawing, all PDC lines, except 997537-175-T-J1-PDC and 415267-285-R-J2-PDC, were cultured in Matrigel-coated flasks prepared with a working solution of 1X Ham's F-12 nutrient mix, without supplementation (Thermo Fisher Scientific, cat. 11765054), 100 U/mL penicillin-streptomycin (Thermo Fisher Scientific, cat. 15140122), and 2.5% Matrigel (Corning Inc., Corning, NY, cat. 354248) for the first three passages. The two PDC lines 997537-175-T-J1-PDC and 415267-285-R-J2-PDC were cultured on uncoated flasks. The 857933-349-R-J2-PDC line was cultured in 6C/Colon 1B media containing advanced DMEM/F-12 (Thermo Fisher Scientific, cat. 12634028), 10 mM HEPES (Thermo Fisher Scientific, cat. 15630080), 1X GlutaMAX supplement (Thermo Fisher Scientific, cat. 35050061), 0.1 mg/mL primocin (InvivoGen, San Diego, CA, cat. ant-pm-2), 10% defined fetal bovine serum, heat inactivated (HyClone Laboratories Inc., Logan, UT, cat. SH30070.03HI), 50% L-WRN conditioned media (ATCC, cat. CRL-3276), 1.25 mM N-Acetyl-L-cysteine (Sigma-Aldrich, cat. A9165), 10 mM nicotinamide (Sigma-Aldrich, cat. N0636), 1X B-27 supplement (Thermo Fisher Scientific, cat. 17504044), 1X N-2 supplement (Thermo Fisher Scientific, cat. […]
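Also: spheroids exposed to drugs for one week before measurement.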
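For viability, T/C in this document: percent viability relative to DMSO vehicle control taken as 100%.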

| Compound | viability, T/C (compound 0.0316 µM) | viability, T/C (compound 0.1 µM) | viability, T/C (compound 0.316 µM) | viability, T/C (compound 1 µM) | viability, T/C (compound 3.16 µM) | viability, T/C (compound 10 µM) | IC50 | viability, T/C (compound 0.00316 µM) | viability, T/C (compound 0.01 µM) | viability, T/C (compound 0.00949 µM) | viability, T/C (compound 0.03 µM) | viability, T/C (compound 0.0949 µM) | viability, T/C (compound 0.3 µM) | viability, T/C (compound 0.949 µM) | viability, T/C (compound 3 µM) |
| --- | --- | --- | --- | --- | --- | --- | --- | --- | --- | --- | --- | --- | --- | --- | --- |
| C#Cc1c(F)ccc2cc(O)cc(-c3ncc4c(N5CC6CCC(C5)N6)nc(OCC56CCCN5CC(F)C6)nc4c3F)c12 (configuration not stated) | 90.8% and 94.2% and 98% | 109% and 101% and 94.8% | 113% and 107% and 110% | 117% and 116% and 112% | 102% and 117% and 93.7% | 84.7% and 82.2% and 84.4% | > 10 µM |  |  |  |  |  |  |  |  |
| C=CC(=O)N1CCN(c2nc(=O)n(-c3c(C)ccnc3C(C)C)c3nc(-c4c(O)cccc4F)c(F)cc23)C(C)C1 (configuration not stated) | 84.9% and 90.1% and 80.7% | 71.5% and 77.5% and 66.9% | 85.2% and 74.5% and 70.9% | 72.8% and 66.9% and 60.2% | 63.5% and 85.5% and 63% | 66.1% and 77.9% and 62.6% | > 10 µM |  |  |  |  |  |  |  |  |
| C=CCn1c(=O)c2cnc(Nc3ccc(N4CCN(C)CC4)cc3)nc2n1-c1cccc(C(C)(C)O)n1 | 106% and 114% and 110% | 115% and 104% and 105% | 83.5% and 95.6% and 103% | 79.1% and 78.9% and 58.3% |  |  | > 1 µM | 101% and 90.2% and 103% | 98.3% and 97.1% and 94.1% |  |  |  |  |  |  |
| CC(=O)O[C@H]1C(=O)[C@@]2(C)[C@H]([C@H](OC(=O)c3ccccc3)[C@]3(O)C[C@H](OC(=O)[C@H](O)[C@@H](NC(=O)c4ccccc4)c4ccccc4)C(C)=C1C3(C)C)[C@]1(OC(C)=O)CO[C@@H]1C[C@@H]2O |  |  |  |  |  |  | 0.0932 µM and 0.125 µM and 0.0704 µM |  |  | 84.8% and 82.2% and 94.2% | 76.5% and 84.1% and 70.9% | 49.1% and 47.2% and 41.7% | 31.8% and 42.1% and 26.9% | 22.3% and 28.3% and 21.8% | 28.1% and 22.8% and 15.4% |
| CC(C)n1c(=O)n(C)c2cnc3cc(F)c(-c4ccc(OCCCN5CCCCC5)nc4)cc3c21 | 98.8% and 106% and 88.4% | 96.7% and 99.9% and 85.7% | 112% and 108% and 95.3% | 101% and 95.5% and 94.9% | 89.8% and 106% and 90.2% | 73.4% and 78.9% and 88.5% | > 10 µM |  |  |  |  |  |  |  |  |
| CC1COCCN1c1cc(-c2ccnn2C)c2ccnc(-c3ccn[nH]3)c2n1 (configuration not stated) | 96.6% and 111% and 99% | 67.8% and 70% and 78.4% | 46.7% and 46.5% and 50.2% | 30.8% and 31.4% and 31.7% | 21.6% and 31.1% and 23.9% | 18.8% and 20.6% and 22.7% | 0.255 µM and 0.265 µM and 0.32 µM |  |  |  |  |  |  |  |  |
